Assay results from PubChem BioAssay AID248 (DTP/NCI, 2004).
“And” between values parts separate entries of the source, which are not always exact repeats. Identical values can stand only once. Inconclusive results and toxic doses are left out. Rule as the data show it: active = T/C of 150% or more; inactive = T/C below 125%.

Test system: L1210 leukemia ip in BDF1 mice, survival T/C
Test: NCI In Vivo Anticancer Drug Screen. Data for tumor model L1210 Leukemia (intraperitoneal) in B6D2F1 (BDF1) mice
Settings: endpoint: mean survival time, higher = longer survival
In short: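 In this screen, tumor-bearing mice given compound are compared to those given vehicle, and their survival values are reported as a treated-to-control quotient.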

[1] = dose: 50.0 mg/kg/injection, schedule: Q01DX009 (ip), vehicle: Klucel (hydroxypropylcellulose) (HPC)
[2] = dose: 100.0 mg/kg/injection, schedule: Q04DX002 (ip), vehicle: Klucel (hydroxypropylcellulose) (HPC)
[3] = dose: 100.0 mg/kg/injection, schedule: Q04DX003 (ip), vehicle: Klucel (hydroxypropylcellulose) (HPC)
[4] = dose: 200.0 mg/kg/injection, schedule: Q04DX003 (ip), vehicle: Klucel (hydroxypropylcellulose) (HPC)
[5] = dose: 400.0 mg/kg/injection, schedule: Q04DX003 (ip), vehicle: Klucel (hydroxypropylcellulose) (HPC)
[6] = dose: 200.0 mg/kg/injection, schedule: Q01DX001 (ip), vehicle: carboxymethylcellulose (CMC)
[7] = dose: 100.0 mg/kg/injection, schedule: Q01DX009 (ip), vehicle: saline with Tween-80
[8] = dose: 200.0 mg/kg/injection, schedule: Q01DX009 (ip), vehicle: saline with Tween-80
[9] = dose: 100.0 mg/kg/injection, schedule: Q04DX003 (ip), vehicle: saline with Tween-80
[10] = dose: 200.0 mg/kg/injection, schedule: Q04DX003 (ip), vehicle: saline with Tween-80
[11] = dose: 400.0 mg/kg/injection, schedule: Q04DX003 (ip), vehicle: saline with Tween-80
[12] = dose: 100.0 mg/kg/injection, schedule: Q01DX001 (ip), vehicle: saline
[13] = dose: 200.0 mg/kg/injection, schedule: Q01DX001 (ip), vehicle: saline
[14] = dose: 400.0 mg/kg/injection, schedule: Q01DX001 (ip), vehicle: saline
[15] = dose: 400.0 mg/kg/injection, schedule: Q04DX002 (ip), vehicle: saline with Tween-80
[16] = dose: 100.0 mg/kg/injection, schedule: Q04DX002 (ip), vehicle: saline with Tween-80
[17] = dose: 200.0 mg/kg/injection, schedule: Q04DX002 (ip), vehicle: saline with Tween-80
[18] = dose: 50.0 mg/kg/injection, schedule: Q01DX009 (ip), vehicle: saline with Tween-80
[19] = dose: 100.0 mg/kg/injection, schedule: Q01DX009 (ip), vehicle: Klucel (hydroxypropylcellulose) (HPC)
[20] = dose: 200.0 mg/kg/injection, schedule: Q01DX009 (ip), vehicle: Klucel (hydroxypropylcellulose) (HPC)
[21] = dose: 400.0 mg/kg/injection, schedule: Q01DX009 (ip), vehicle: Klucel (hydroxypropylcellulose) (HPC)

Measured: T/C

Cc1cccc(CN=C(N)CSS(=O)(=O)O)n1
inactive: dose: 25.0 mg/kg/injection, schedule: Q01DX009 (ip), vehicle: Klucel (hydroxypropylcellulose) (HPC) 104 % of control | dose: 25.0 mg/kg/injection, schedule: Q04DX002 (ip), vehicle: Klucel (hydroxypropylcellulose) (HPC) 92 % of control | [1] 96 % of control | dose: 50.0 mg/kg/injection, schedule: Q04DX002 (ip), vehicle: Klucel (hydroxypropylcellulose) (HPC) 103 % of control | [2] 101 % of control and 88 % of control

COc1ccc(NC(=O)Oc2ccc(-c3ccccc3)cc2Br)cc1
inactive: [3] 96 % of control | [4] 96 % of control | [5] 92 % of control

O=[N+]([O-])c1ccc(Nc2ccccc2)nc1
inactive: dose: 50.0 mg/kg/injection, schedule: Q01DX001 (ip), vehicle: carboxymethylcellulose (CMC) 106 % of control | dose: 100.0 mg/kg/injection, schedule: Q01DX001 (ip), vehicle: carboxymethylcellulose (CMC) 106 % of control | [6] 101 % of control | dose: 400.0 mg/kg/injection, schedule: Q01DX001 (ip), vehicle: carboxymethylcellulose (CMC) 106 % of control

CCCCCC1CCC(OC(=O)NC)CC1 (stereo not given)
inactive: dose: 100.0 mg/kg/injection, schedule: Q01DX001 (ip), vehicle: Klucel (hydroxypropylcellulose) (HPC) 99 % of control | dose: 200.0 mg/kg/injection, schedule: Q01DX001 (ip), vehicle: Klucel (hydroxypropylcellulose) (HPC) 100 % of control | dose: 400.0 mg/kg/injection, schedule: Q01DX001 (ip), vehicle: Klucel (hydroxypropylcellulose) (HPC) 94 % of control

CCCCC#CC(=O)OCCCCC
inactive: [7] 105 % of control | [8] 91 % of control

Cc1cc(C)c(C(=O)O)c(O)c1
inactive: [6] 93 % of control

COC1OC(COS(C)(=O)=O)C(OS(C)(=O)=O)C(OS(C)(=O)=O)C1OS(C)(=O)=O (stereo not given)
inactive: [9] 91 % of control and 100 % of control | [10] 93 % of control and 91 % of control | [11] 88 % of control and 94 % of control

CN(C)/N=N/c1nc[nH]c1C(N)=O.[Cl][Cu][Cl]
inactive: dose: 9.5 mg/kg/injection, schedule: Q01DX001 (ip), vehicle: saline 103 % of control | dose: 19.0 mg/kg/injection, schedule: Q01DX001 (ip), vehicle: saline 95 % of control | dose: 38.0 mg/kg/injection, schedule: Q01DX001 (ip), vehicle: saline 101 % of control

O=C(Nc1ccccc1F)C(Cl)(Cl)Cl
inactive: [2] 104 % of control | dose: 200.0 mg/kg/injection, schedule: Q04DX002 (ip), vehicle: Klucel (hydroxypropylcellulose) (HPC) 104 % of control

CSc1nc(N)nc2c1ncn2C1CC(O)C(CO)O1 (stereo not given)
inactive: dose: 100.0 mg/kg/injection, schedule: Q01DX005 (ip), vehicle: saline 105 % of control and 112 % of control and 96 % of control | dose: 100.0 mg/kg/injection, schedule: Q01DX009 (ip), vehicle: saline 121 % of control | dose: 200.0 mg/kg/injection, schedule: Q01DX005 (ip), vehicle: saline 112 % of control and 121 % of control and 91 % of control | dose: 200.0 mg/kg/injection, schedule: Q01DX009 (ip), vehicle: saline 115 % of control | dose: 400.0 mg/kg/injection, schedule: Q01DX009 (ip), vehicle: saline 116 % of control

COP1(=O)OCC(C)CO1 (stereo not given)
inactive: [12] 102 % of control | [13] 93 % of control | [14] 98 % of control

C[Si](C)(C)C(c1ccccc1)(c1ccccc1)c1ccccc1
inactive: dose: 25.6 mg/kg/injection, schedule: Q04DX002 (ip), vehicle: saline with Tween-80 101 % of control | dose: 64.0 mg/kg/injection, schedule: Q04DX002 (ip), vehicle: saline with Tween-80 90 % of control | [10] 87 % of control | [15] 90 % of control | [11] 88 % of control

NC(=O)c1ccc(OC(F)(F)C(F)Cl)cc1OC(F)(F)C(F)Cl (stereo not given)
inactive: [9] 98 % of control | [11] 102 % of control

Cn1cnc(=O)c2ccccc21
inactive: dose: 100.0 mg/kg/injection, schedule: Q04DX003 (ip), vehicle: saline 88 % of control | dose: 200.0 mg/kg/injection, schedule: Q04DX003 (ip), vehicle: saline 100 % of control

Cc1cc(=O)[nH]c(=O)n1C1OC(CO)C(O)C1O (stereo not given)
inactive: [12] 108 % of control | [13] 102 % of control | [14] 98 % of control

CC(C)CC(NC(=O)CNC(=O)OCc1ccccc1)C(=O)O (stereo not given)
inactive: [9] 101 % of control | [10] 97 % of control | [11] 91 % of control

Cc1cc(-n2c(C)ccc2C)no1
inactive: [9] 100 % of control | [10] 90 % of control | [11] 101 % of control

COC1CCC(/C(C#N)=C/C2CCC(N(C)C)CC2)CC1 (stereo not given)
inactive: [16] 95 % of control | [17] 91 % of control | [15] 98 % of control

Cc1ccc(NC(=O)NCCOc2ccc(Br)cc2)c([N+](=O)[O-])c1
inactive: [18] 98 % of control | [7] 95 % of control | [9] 92 % of control | [8] 95 % of control | [10] 91 % of control | [11] 100 % of control

O=C1Nc2cccc3cc([N+](=O)[O-])cc1c23
inactive: [12] 101 % of control | [13] 93 % of control | [14] 103 % of control

COc1ccc(C)cc1NC(=O)Nc1cccc(C(F)(F)F)c1
inactive: [19] 92 % of control | [20] 86 % of control | [21] 95 % of control

COC(=O)N/N=C/C=C/c1ccccc1
inactive: dose: 25.0 mg/kg/injection, schedule: Q01DX009 (ip), vehicle: saline with Tween-80 101 % of control | [18] 105 % of control | [7] 97 % of control

CCC(C)c1ccccc1OC(=O)Nc1ccc(OC)cc1 (stereo not given)
inactive: [1] 105 % of control | [19] 92 % of control | [3] 96 % of control | [20] 95 % of control | [4] 94 % of control | [5] 100 % of control

N#CCCn1cnc2c(=S)nc[nH]c21
inactive: dose: 2.0 mg/kg/injection, schedule: Q01DX Z (ip), vehicle: other 97 % of control | dose: 4.0 mg/kg/injection, schedule: Q01DX Z (ip), vehicle: other 97 % of control and 100 % of control | dose: 8.0 mg/kg/injection, schedule: Q01DX Z (ip), vehicle: other 100 % of control and 106 % of control | dose: 16.0 mg/kg/injection, schedule: Q01DX Z (ip), vehicle: other 101 % of control and 102 % of control | dose: 32.0 mg/kg/injection, schedule: Q01DX Z (ip), vehicle: other 96 % of control and 98 % of control

O=S(=O)(Nc1ccc(F)cc1)c1ccccc1
inactive: [19] 96 % of control | [3] 103 % of control | [20] 102 % of control | [4] 95 % of control | [21] 105 % of control | [5] 93 % of control

CC(NC(=O)OCc1ccccc1)C(=O)NC(Cc1ccccc1)C(=O)OCc1ccccc1 (stereo not given)
inactive: [9] 95 % of control | [11] 91 % of control

COc1ccc(OC(=O)Nc2ccc(OC)cc2OC)cc1
inactive: [19] 97 % of control | [20] 104 % of control | [21] 96 % of control

O/N=C(/C(=N/O)c1ccccc1)c1ccccc1.O/N=C(/C(=N/O)c1ccccc1)c1ccccc1.[Ni]
inactive: [16] 97 % of control | [17] 97 % of control | [15] 93 % of control
